Experimental data published in BindingDB's records for doi:10.1021/acs.biochem.7b00151 (University of Missouri, 2017).
pIC50, pKi: −log10 of the molar value.

Molecular target: T1, Tyrosine-protein phosphatase non-receptor type 1 [1-322] (Human, UniProt P18031)
T1 construct: 1-322
T1 sequence (P18031 whole entry): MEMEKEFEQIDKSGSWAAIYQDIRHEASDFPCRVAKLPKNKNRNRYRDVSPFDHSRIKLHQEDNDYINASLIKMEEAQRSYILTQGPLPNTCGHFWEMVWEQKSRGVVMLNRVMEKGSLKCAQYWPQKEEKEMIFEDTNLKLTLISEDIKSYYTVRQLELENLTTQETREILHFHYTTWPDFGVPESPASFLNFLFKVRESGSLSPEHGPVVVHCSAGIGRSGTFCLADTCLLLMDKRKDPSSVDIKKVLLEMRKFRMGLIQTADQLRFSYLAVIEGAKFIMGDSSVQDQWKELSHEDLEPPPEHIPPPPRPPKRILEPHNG
Assay: PTP1B Activity Assay
Settings: pH 7
Protocol: The test compounds were introduced into the solutions as stock solutions dissolved in DMSO. After 20−30 s, the amount of PTP1B activity in the assays was assessed by measuring the increase in absorbance at 410 nm as a function of time resulting from the enzyme-mediated conversion of p-NPP to p-nitrophenolate.

Row | pIC50 | pKi | SMILES
1 | 4.19 | 4.49 | CC(=O)Nc1ccc(-c2ccc(C)c(N3CC(=O)NS3(=O)=O)c2)cc1 [N-[3'-(1,1-Dioxido-4-oxo-1,2,5-thiadiazolidin-2-yl)-4'-methyl[1,1'-biphenyl]-4-yl]acetamide (5b)]
2 | 4.27 | 4.57 | Cc1ccc(-c2ccc(NC(=O)CBr)cc2)cc1N1CC(=O)NS1(=O)=O [2-Bromo-N-[3'-(1,1-dioxido-4-oxo-1,2,5-thiadiazolidin-2-yl)-4'-methyl[1,1'-biphenyl]-4-yl]-acetamide (5a)]
3 | 4.11 | 4.41 | Cc1ccc(-c2ccccc2)cc1N1CC(=O)NS1(=O)=O [5-(4-Methyl[1,1'-biphenyl]-3-yl)-1,2,5-thiadiazolidin-3-one 1,1-Dioxide (2b)]
